The text below walks through data of patent US9102899B2, “Organic compounds” (Givaudan SA, priority 2004, dated 2015).

Data set [1] is described as follows: Odour threshold by gas chromatograph with sniff port, panel of trained individuals. Conditions: GC sniff port; absolute amount of compound delivered at the sniff port; same panel, couples evaluated on the same day. How it is done: According to standard procedures known to the person skilled in the art, threshold values for volatile perfumery compounds were determined on a gas chromatograph equipped with a sniff port by a panel of trained individuals. The last concentration smelled by each individual was recorded as the individual threshold value expressed in ng (absolute amount of compound delivered at the sniff port). All compounds have been evaluated by the same panel. The couples (saturated and unsaturated compound) were evaluated on the same day.

The melting point is the temperature, or range, at which the solid turns liquid.

The structures appear in SMILES notation.

`CCC(C)=C(C#N)c1ccccc1` (racemic) [Example 3, 3-Methyl-2-phenyl-pent-2-ene nitrile] came in with an Odour threshold in data set [1] of 3 ng.

As to `CCC(C)C(C#N)c1ccccc1` (centres unmarked) [Comparison Example 3A, reference compound], the Odour threshold in data set [1] was determined as 26 ng.

Regarding `CCCCCC=C(C#N)c1ccccc1` (stereo in doubt) [Example 2, (2E)-2-Phenyl-oct-2-ene nitrile], the Odour threshold in data set [1] was 2 ng.

For `CCCCCCC(C#N)c1ccccc1` (centres unmarked) [Comparison Example 2A, reference compound], the Odour threshold in data set [1] turned out to be 15 ng.

`CC(C)=C/C=C(/C#N)c1ccccc1` [Example 6, (2E)-5-Methyl-2-phenyl-hexa-2,4-diene nitrile] showed a melting point of 66 to 67 °C.
